Results reported in patent US8337835B2, “Use of an endogenous ligand for peroxisome proliferator activated receptor alpha to treat liver disorders” (priority 2009, dated 2012).

Test system: PPARα target gene (ACO and CPT-1) expression
Experiment: PPARα target gene (ACO and CPT-1) expression by quantitative RT-PCR in Hepa 1-6 cells
Format: cell-based
Conditions: Hepa 1-6 mouse hepatoma cells, 24 h, serum-free DMEM
Method: RT-PCR gene expression analysis and binding assays were employed to address this objective. Wy14,643, 16:0/18:1-GPC, and 18:1/16:0-GPC on PPARα target gene (ACO and CPT-1) expression was measured by quantitative RT-PCR in Hepa 1-6 cells treated for 24 h as in FIG. 6A. Results are mean±SEM of 9 separate experiments. *, P<0.05 compared to control (Ctrl, 80% PBS/20% DMSO).
The C57BL/6 mouse hepatoma cell line Hepa 1-6 (ATCC, CRL-1830) was expanded in DMEM with 10% fetal bovine serum. For experiments, cells were cultured to 50-60% confluence, washed twice with PBS, and the medium was changed to serum-free DMEM supplemented with the various types and concentrations of phosphatidylcholine (sonicated to homogeneity in PBS/1% ethanol/4% fatty acid-free BSA), Wy14,643 (dissolved in 80% PBS/20% DMSO), or vehicle-only solutions. 24 h later, cells were washed, RNA prepared, and ACO and CPT-1 expression levels were determined by quantitative RT-PCR (see FIG. 6). For siRNA experiments, 50-60% confluent cells were treated with siRNAs or their scrambled controls (all diluted in PBS) for 72 h. Following the 72 h siRNA treatment, another set of cells received 16:0/18:1-GPC (using a concentration based on dose-response experiments) for an additional 24 h. Stealth™ siRNA oligonucleotides were used to inhibit the gene expression of mouse ChPT1 ([…]) (SEQ ID NO: 1) and CEPT1 ([…]) (SEQ ID NO: 2) were from Invitrogen (Carlsbad, Calif.).
Total RNA was extracted from Hepa 1-6 cells and liver using Trizol (Invitrogen) and treated with DNase I (RNase-free, Roche Molecular Biochemicals). Reverse transcription to cDNA and real-time quantitative PCR were performed using previously published procedures and primer-probe sequences for ACO and CPT-1 (Chakravarthy et al., 2005). […] Relative mRNA levels were calculated using both the comparative CT and standard curve methods normalized to ribosomal protein L32, an invariant internal control. […]

**Q.** How did the “expression of PPARα-dependent genes ACO and CPT-I” value turn out when `CCCCCCCC/C=C\CCCCCCCC(=O)OC[C@H](COP(=O)([O-])OCC[N+](C)(C)C)OC(=O)CCCCCCCCCCCCCCC` [18:1/16:0-GPC, 1-oleoyl-2-palmitoyl-sn-glycero-3-phosphocholine, reference compound] was run?
**A.** does not induce PPARα-dependent gene expression
